Source: PubChem BioAssay (NCI)
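Following 48 hours of exposure in 96-well plates, responses at five concentrations were used to interpolate endpoints linearly. TGI denotes the concentration required for complete inhibition of growth.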

Columns and labels:
Assay in all cases: NCI tumour cell line growth inhibition, 48 h
SF-539 CNS = test system: SF-539 CNS
NCI-H226 lung = test system: NCI-H226 lung
MDA-N = test system: MDA-N
UO-31 renal = test system: UO-31 renal
SNB-75 CNS = test system: SNB-75 CNS
K-562 leukemia = test system: K-562 leukemia
SF-268 CNS = test system: SF-268 CNS
OVCAR-3 ovarian = test system: OVCAR-3 ovarian
HS 578T breast = test system: HS 578T breast
IGROV1 ovarian = test system: IGROV1 ovarian
OVCAR-4 ovarian = test system: OVCAR-4 ovarian
SK-OV-3 ovarian = test system: SK-OV-3 ovarian
MOLT-4 leukemia = test system: MOLT-4 leukemia
UACC-62 melanoma = test system: UACC-62 melanoma
LOX IMVI melanoma = test system: LOX IMVI melanoma
CAKI-1 renal = test system: CAKI-1 renal
M14 melanoma = test system: M14 melanoma
HCT-116 colon = test system: HCT-116 colon
MCF7 breast = test system: MCF7 breast
NCI-H522 lung = test system: NCI-H522 lung
SK-MEL-2 melanoma = test system: SK-MEL-2 melanoma
KM12 colon = test system: KM12 colon
UACC-257 melanoma = test system: UACC-257 melanoma
ACHN renal = test system: ACHN renal
SNB-19 CNS = test system: SNB-19 CNS
TK-10 renal = test system: TK-10 renal
U251 CNS = test system: U251 CNS
EKVX NSCLC = test system: EKVX NSCLC
OVCAR-5 ovarian = test system: OVCAR-5 ovarian
SW-620 colon = test system: SW-620 colon
SK-MEL-28 melanoma = test system: SK-MEL-28 melanoma
BT-549 breast = test system: BT-549 breast
T-47D breast = test system: T-47D breast
HL-60(TB) leukemia = test system: HL-60(TB) leukemia
SN12C renal = test system: SN12C renal
HT29 colon = test system: HT29 colon
PC-3 prostate = test system: PC-3 prostate
COLO 205 colon = test system: COLO 205 colon
NCI-H460 lung = test system: NCI-H460 lung
MDA-MB-435 = test system: MDA-MB-435
MDA-MB-231 breast = test system: MDA-MB-231 breast
HCT-15 colon = test system: HCT-15 colon
DU-145 prostate = test system: DU-145 prostate
SK-MEL-5 melanoma = test system: SK-MEL-5 melanoma
NCI-H23 lung = test system: NCI-H23 lung
A549 NSCLC = test system: A549 NSCLC
A498 renal = test system: A498 renal
HOP-62 NSCLC = test system: HOP-62 NSCLC
CCRF-CEM leukemia = test system: CCRF-CEM leukemia
OVCAR-8 ovarian = test system: OVCAR-8 ovarian
SF-295 CNS = test system: SF-295 CNS
786-0 renal = test system: 786-0 renal
NCI/ADR-RES ovarian = test system: NCI/ADR-RES ovarian
RPMI-8226 leukemia = test system: RPMI-8226 leukemia
SR leukemia = test system: SR leukemia

Measured: TGI

CC1COC(c2cn[nH]c2C(N)=O)C1O (stereo not given)
> 100 µM: all assays above
